Measured values: ChEMBL document CHEMBL3785053, “Synthesis and screening of ursolic acid-benzylidine derivatives as potential anti-cancer agents” (Eur J Med Chem, 2016)

Assays:
[1] = Cytotoxicity against human HCT116 cells after 48 hrs by MTT assay; assay type: functional, cell-based; conditions: HCT-116, 48 h
[2] = test system: A549; test: Cytotoxicity against human A549 cells after 48 hrs by MTT assay; assay type: functional, cell-based; conditions: A549, 48 h
[3] = Cytotoxicity against human THP1 cells at 50 uM after 48 hrs by MTT assay; assay type: functional; conditions: THP-1, 48 h, read-out: GI
[4] = Cytotoxicity against human FR2 cells at 50 uM after 48 hrs by MTT assay; assay type: cell-based; conditions: read-out: GI
[5] = Cytotoxicity against human HCT116 cells at 50 uM after 48 hrs by MTT assay; assay type: functional; conditions: HCT-116, 48 h, read-out: GI
[6] = test system: A549; test: Cytotoxicity against human A549 cells at 50 uM after 48 hrs by MTT assay; assay type: functional; conditions: A549, 48 h, read-out: GI
[7] = test system: MCF7; test: Cytotoxicity against human MCF7 cells at 50 uM after 48 hrs by MTT assay; assay type: functional; conditions: MCF7, 48 h, read-out: GI
[8] = test system: MCF7; test: Cytotoxicity against human MCF7 cells after 48 hrs by MTT assay; assay type: functional, cell-based; conditions: MCF7, 48 h
[9] = Cytotoxicity against human THP1 cells after 48 hrs by MTT assay; assay type: functional, cell-based; conditions: THP-1, 48 h
[10] = Cytotoxicity against human FR2 cells after 48 hrs by MTT assay; assay type: cell-based; conditions: FR2, 48 h

Structure (SMILES)	IC50 [1] [µM]	IC50 [2] [µM]	inhibition of growth at 50 µM [3] [%]	inhibition at 48 h, 50 µM [4] [%]	inhibition of growth at 50 µM [5] [%]	inhibition of growth at 50 µM [6] [%]	inhibition of growth at 50 µM [7] [%]	IC50 [8] [µM]	IC50 [9] [µM]	IC50 [10] [µM]
COc1cc(/C=C2\C[C@]3(C)[C@H]4CC=C5[C@@H]6[C@@H](C)[C@H](C)CC[C@]6(C(=O)O)CC[C@@]5(C)[C@]4(C)CC[C@H]3C(C)(C)C2=O)cc(OC)c1OC	< 0.9	< 0.9	93	81	99	99	99	4	9.1	35
O=c1[nH]cc(F)c(=O)[nH]1 [FLUOROURACIL]	2.3	1.4	89	–	79	82	92	2	1.7	–
COc1cccc(/C=C2\C[C@]3(C)[C@H]4CC=C5[C@@H]6[C@@H](C)[C@H](C)CC[C@]6(C(=O)O)CC[C@@]5(C)[C@]4(C)CC[C@H]3C(C)(C)C2=O)c1	23	0.65	95	85	65	84	98	4.2	12	40
C[C@H]1[C@H](C)CC[C@]2(C(=O)O)CC[C@]3(C)C(=CC[C@@H]4[C@@]5(C)C/C(=C\c6ccc(Br)cc6)C(=O)C(C)(C)[C@@H]5CC[C@]43C)[C@H]12	32	15	95	95	53	60	98	5	5	35
C[C@H]1[C@H](C)CC[C@]2(C(=O)O)CC[C@]3(C)C(=CC[C@@H]4[C@@]5(C)C/C(=C\c6ccc(O)cc6)C(=O)C(C)(C)[C@@H]5CC[C@]43C)[C@H]12	15	2.1	99	90	99	98	98	5	4.1	70
C[C@H]1[C@H](C)CC[C@]2(C(=O)O)CC[C@]3(C)C(=CC[C@@H]4[C@@]5(C)C/C(=C\c6ccc(Cl)cc6)C(=O)C(C)(C)[C@@H]5CC[C@]43C)[C@H]12	15	2.9	99	99	99	99	99	4.1	12	69
C[C@H]1[C@H](C)CC[C@]2(C(=O)O)CC[C@]3(C)C(=CC[C@@H]4[C@@]5(C)C/C(=C\c6ccc([N+](=O)[O-])cc6[N+](=O)[O-])C(=O)C(C)(C)[C@@H]5CC[C@]43C)[C@H]12	5	2	98	95	98	98	98	4.1	4.1	70
C[C@H]1[C@H](C)CC[C@]2(C(=O)O)CC[C@]3(C)C(=CC[C@@H]4[C@@]5(C)CC[C@H](O)C(C)(C)[C@@H]5CC[C@]43C)[C@H]12 [URSOLIC ACID]	42	–	84	66	53	61	57	–	9.1	31
C[C@H]1[C@H](C)CC[C@]2(C(=O)O)CC[C@]3(C)C(=CC[C@@H]4[C@@]5(C)CCC(=O)C(C)(C)[C@@H]5CC[C@]43C)[C@H]12 [URSONIC ACID]	2.3	15	88	86	53	78	42	56	13	24
C[C@H]1[C@H](C)CC[C@]2(C(=O)O)CC[C@]3(C)C(=CC[C@@H]4[C@@]5(C)C/C(=C\c6ccc7ccccc7c6)C(=O)C(C)(C)[C@@H]5CC[C@]43C)[C@H]12	0.53	16	98	75	89	60	90	21	5	40
C[C@H]1[C@H](C)CC[C@]2(C(=O)O)CC[C@]3(C)C(=CC[C@@H]4[C@@]5(C)C/C(=C\c6ccccc6[N+](=O)[O-])C(=O)C(C)(C)[C@@H]5CC[C@]43C)[C@H]12	5	6.4	86	78	91	64	73	30	1.1	44
C[C@H]1[C@H](C)CC[C@]2(C(=O)O)CC[C@]3(C)C(=CC[C@@H]4[C@@]5(C)C/C(=C\c6ccccc6)C(=O)C(C)(C)[C@@H]5CC[C@]43C)[C@H]12	14	18	90	90	95	60	98	23	16	70
COc1ccccc1/C=C1\C[C@]2(C)[C@H]3CC=C4[C@@H]5[C@@H](C)[C@H](C)CC[C@]5(C(=O)O)CC[C@@]4(C)[C@]3(C)CC[C@H]2C(C)(C)C1=O	2.1	0.5	96	85	98	90	99	5	0.9	8.6
C[C@H]1[C@H](C)CC[C@]2(C(=O)O)CC[C@]3(C)C(=CC[C@@H]4[C@@]5(C)C/C(=C\c6cccc(Cl)c6)C(=O)C(C)(C)[C@@H]5CC[C@]43C)[C@H]12	4.1	7	85	80	90	65	70	29	5	45
C[C@H]1[C@H](C)CC[C@]2(C(=O)O)CC[C@]3(C)C(=CC[C@@H]4[C@@]5(C)C/C(=C\C=C\c6ccccc6)C(=O)C(C)(C)[C@@H]5CC[C@]43C)[C@H]12	2.1	0.65	93	80	98	89	99	12	16	38
C[C@H]1[C@H](C)CC[C@]2(C(=O)O)CC[C@]3(C)C(=CC[C@@H]4[C@@]5(C)C/C(=C\c6ccc([N+](=O)[O-])cc6)C(=O)C(C)(C)[C@@H]5CC[C@]43C)[C@H]12	12	2	95	99	95	99	95	5	14	69
COc1cc(OC)c(OC)cc1/C=C1\C[C@]2(C)[C@H]3CC=C4[C@@H]5[C@@H](C)[C@H](C)CC[C@]5(C(=O)O)CC[C@@]4(C)[C@]3(C)CC[C@H]2C(C)(C)C1=O	12	9	80	76	85	60	76	20	2	40
C[C@H]1[C@H](C)CC[C@]2(C(=O)O)CC[C@]3(C)C(=CC[C@@H]4[C@@]5(C)C/C(=C\c6cccc7ccccc67)C(=O)C(C)(C)[C@@H]5CC[C@]43C)[C@H]12	0.64	17	90	97	99	58	96	12	2.1	68
